Test results: ChEMBL document CHEMBL1201862, “PubChem BioAssay data set” (2004)
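96-well plates; 48 h exposure; 5 concentrations. Endpoints by linear interpolation between flanking doses. Not reached: highest tested concentration assigned. GI50 is the concentration that inhibits growth by half.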 Activity calls are given as the source filed them. No stated cut-off is given here; in the data, active = GI50 up to about 1.1 µM and inactive = higher.

What was measured:
Assay in all cases: inhibition of tumour cell growth, NCI panel, 48 h
[1] = test system: TK-10
[2] = test system: K562
[3] = test system: HCC 2998
[4] = test system: M14
[5] = test system: NCI-H23
[6] = test system: OVCAR-4
[7] = test system: HCT-116
[8] = test system: OVCAR-3
[9] = test system: SK-MEL-2
[10] = test system: KM12
[11] = test system: RXF 393
[12] = test system: SW-620
[13] = test system: HL-60
[14] = test system: SN12C
[15] = test system: T47D
[16] = test system: COLO 205
[17] = test system: HOP-62
[18] = test system: PC-3
[19] = test system: RPMI-8226
[20] = test system: OVCAR-5

Compound | GI50 [1] | GI50 [2] | GI50 [3] | GI50 [4] | GI50 [5] | GI50 [6] | GI50 [7] | GI50 [8] | GI50 [9] | GI50 [10] | GI50 [11] | GI50 [12] | GI50 [13] | GI50 [14] | GI50 [15] | GI50 [16] | GI50 [17] | GI50 [18] | GI50 [19] | GI50 [20]
CCN(CC)CCN(/C(=N/c1ccccc1)N1CCOCC1)c1ccccc1 | > 100 µM (inactive) | > 100 µM (inactive) | > 100 µM (inactive) | > 100 µM (inactive) | 70 µM (inactive) | 95.7 µM (inactive) | 9.89 µM (inactive) | > 100 µM (inactive) | > 100 µM (inactive) | > 100 µM (inactive) | > 100 µM (inactive) | > 100 µM (inactive) | 18.2 µM (inactive) | > 100 µM (inactive) | > 100 µM (inactive) | 39.4 µM (inactive) | 74.6 µM (inactive) | > 100 µM (inactive) | > 100 µM (inactive) | 
Nc1ncnc2oc(C3OC(COC(=O)c4ccccc4)C(OC(=O)c4ccccc4)C3OC(=O)c3ccccc3)nc12 (stereo not given) | > 100 µM (inactive) | > 100 µM (inactive) | > 100 µM (inactive) | > 100 µM (inactive) | > 100 µM (inactive) | > 100 µM (inactive) | > 100 µM (inactive) | > 100 µM (inactive) |  | > 100 µM (inactive) | > 100 µM (inactive) | > 100 µM (inactive) | > 100 µM (inactive) | > 100 µM (inactive) | 21.1 µM (inactive) | > 100 µM (inactive) | > 100 µM (inactive) | 98.6 µM (inactive) | > 100 µM (inactive) | > 100 µM (inactive)
CC(=O)OCCc1cc2ccccc2oc1=O |  | > 100 µM (inactive) | > 100 µM (inactive) | > 100 µM (inactive) | > 100 µM (inactive) | > 100 µM (inactive) | > 100 µM (inactive) | > 100 µM (inactive) | > 100 µM (inactive) | > 100 µM (inactive) | > 100 µM (inactive) | > 100 µM (inactive) | > 100 µM (inactive) | > 100 µM (inactive) | > 100 µM (inactive) | > 100 µM (inactive) | > 100 µM (inactive) | > 100 µM (inactive) | > 100 µM (inactive) | > 100 µM (inactive)
Sc1nnc(NNc2ccccc2)n1Nc1ccccc1 | > 52.6 µM (inactive) | 0.0213 µM (active) | 1.78 µM (inactive) | 2.02 µM (inactive) | 28.2 µM (inactive) | 0.236 µM (active) | 2.31 µM (inactive) | > 41.7 µM (inactive) |  | 26.1 µM (inactive) | 1.78 µM (inactive) | 28.7 µM (inactive) | 0.04 µM (active) | > 95.9 µM (inactive) | 0.528 µM (active) | 0.109 µM (active) | 64.3 µM (inactive) | 44.8 µM (inactive) | 2.51 µM (inactive) | > 55.2 µM (inactive)
CCc1cccc(C(C)(C)C)c1NC(=S)N/C=C(/C#N)C(N)=O |  | > 100 µM (inactive) | > 100 µM (inactive) | > 100 µM (inactive) | > 100 µM (inactive) | > 100 µM (inactive) | > 100 µM (inactive) | 92.7 µM (inactive) | > 100 µM (inactive) | > 100 µM (inactive) | > 100 µM (inactive) | > 100 µM (inactive) | 93.1 µM (inactive) | > 100 µM (inactive) | 95.5 µM (inactive) | > 100 µM (inactive) | > 100 µM (inactive) | > 100 µM (inactive) | > 100 µM (inactive) | > 100 µM (inactive)
